Experimental data as given in PubChem BioAssay AID1963856 (Molecular Pharmacology Branch, DTP, NCI, 2024).

Test system: LG0567-F671-PDC KRAS tumor spheroid viability
Assay: Anticancer human tumor LG0567-F671-PDC patient-derived lung adenocarcinoma cell line growth inhibition [KRAS2]
Conditions: spheroids with HUVEC and MSC; for IC50: curve of first compound; for viability, T/C: stronger effect = lower value
Method in brief: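 KRAS-mutant tumor cells were grown as spheroids with HUVEC endothelial cells and human MSCs as stroma. Targeted agents were tested alone and with KRAS pathway inhibitors. Doses started at or near clinical Cmax, or 10 microM, descending half-log.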

[1] = second compound 0.0316 µM, first compound 0.0316 µM
[2] = second compound 0.0316 µM, first compound 0.1 µM
[3] = second compound 0.1 µM, first compound 0.0316 µM
[4] = second compound 0.1 µM, first compound 0.1 µM
[5] = second compound 0.316 µM, first compound 0.0316 µM
[6] = second compound 0.316 µM, first compound 0.1 µM
[7] = second compound 1 µM, first compound 0.0316 µM
[8] = second compound 1 µM, first compound 0.1 µM
[9] = second compound 3.16 µM, first compound 0.0316 µM
[10] = second compound 3.16 µM, first compound 0.1 µM
[11] = second compound 0.0316 µM, first compound 0.316 µM
[12] = second compound 0.0316 µM, first compound 1 µM
[13] = second compound 0.0316 µM, first compound 3.16 µM
[14] = second compound 0.0316 µM, first compound 10 µM
[15] = second compound 0.1 µM, first compound 0.316 µM
[16] = second compound 0.1 µM, first compound 1 µM
[17] = second compound 0.1 µM, first compound 3.16 µM
[18] = second compound 0.1 µM, first compound 10 µM
[19] = second compound 0.316 µM, first compound 0.316 µM
[20] = second compound 0.316 µM, first compound 1 µM
[21] = second compound 0.316 µM, first compound 3.16 µM
[22] = second compound 0.316 µM, first compound 10 µM
[23] = second compound 1 µM, first compound 0.316 µM
[24] = second compound 1 µM, first compound 1 µM
[25] = second compound 1 µM, first compound 3.16 µM
[26] = second compound 1 µM, first compound 10 µM
[27] = second compound 3.16 µM, first compound 0.316 µM
[28] = second compound 3.16 µM, first compound 1 µM
[29] = second compound 3.16 µM, first compound 3.16 µM
[30] = second compound 3.16 µM, first compound 10 µM
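Further: drug exposure lasted seven days after spheroids formed for three days.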
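Wherever viability, T/C is given: 100% = DMSO vehicle control viability.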

CN(C)C/C=C/C(=O)Nc1cc2c(Nc3ccc(F)c(Cl)c3)ncnc2cc1O[C@H]1CCOC1 + C=CC(=O)N1CCN(c2nc(OCC3CCCN3C)nc3c2CCN(c2cccc4cccc(C)c24)C3)CC1CC#N
IC50 (second compound 0.0316 µM): < 0.316 nM
IC50 (second compound 0.1 µM): < 0.316 nM
IC50 (second compound 0.316 µM): < 0.316 nM
IC50 (second compound 1 µM): < 0.316 nM
IC50 (second compound 3.16 µM): < 0.316 nM
viability, T/C (second compound 0.0316 µM, first compound 0.000316 µM): 39.3%
viability, T/C (second compound 0.0316 µM, first compound 0.001 µM): 40.4%
viability, T/C (second compound 0.0316 µM, first compound 0.00316 µM): 41.9%
viability, T/C (second compound 0.0316 µM, first compound 0.01 µM): 29.8%
viability, T/C [1]: 30.4%
viability, T/C [2]: 23.5%
viability, T/C (second compound 0.1 µM, first compound 0.000316 µM): 38.1%
viability, T/C (second compound 0.1 µM, first compound 0.001 µM): 32%
viability, T/C (second compound 0.1 µM, first compound 0.00316 µM): 26.5%
viability, T/C (second compound 0.1 µM, first compound 0.01 µM): 34.5%
viability, T/C [3]: 25.8%
viability, T/C [4]: 18.5%
viability, T/C (second compound 0.316 µM, first compound 0.000316 µM): 24.8%
viability, T/C (second compound 0.316 µM, first compound 0.001 µM): 28.8%
viability, T/C (second compound 0.316 µM, first compound 0.00316 µM): 34.4%
viability, T/C (second compound 0.316 µM, first compound 0.01 µM): 30.4%
viability, T/C [5]: 32.1%
viability, T/C [6]: 20.1%
viability, T/C (second compound 1 µM, first compound 0.000316 µM): 29.3%
viability, T/C (second compound 1 µM, first compound 0.001 µM): 32.6%
viability, T/C (second compound 1 µM, first compound 0.00316 µM): 25.1%
viability, T/C (second compound 1 µM, first compound 0.01 µM): 22.2%
viability, T/C [7]: 21.2%
viability, T/C [8]: 19%
viability, T/C (second compound 3.16 µM, first compound 0.000316 µM): 26.5%
viability, T/C (second compound 3.16 µM, first compound 0.001 µM): 10.8%
viability, T/C (second compound 3.16 µM, first compound 0.00316 µM): 15.7%
viability, T/C (second compound 3.16 µM, first compound 0.01 µM): 6.55%
viability, T/C [9]: 10.2%
viability, T/C [10]: 11.3%

COC(=O)c1ccc2c(C(=Nc3ccc(N(C)C(=O)CN4CCN(C)CC4)cc3)c3ccccc3)c(O)[nH]c2c1 + C=CC(=O)N1CCN(c2nc(OCC3CCCN3C)nc3c2CCN(c2cccc4cccc(C)c24)C3)CC1CC#N
IC50 (second compound 0.0316 µM): < 31.6 nM
IC50 (second compound 0.1 µM): < 31.6 nM
IC50 (second compound 0.316 µM): < 31.6 nM
IC50 (second compound 1 µM): < 31.6 nM
IC50 (second compound 3.16 µM): < 31.6 nM
viability, T/C [1]: 23.7%
viability, T/C [2]: 23.2%
viability, T/C [11]: 21.9%
viability, T/C [12]: 30.4%
viability, T/C [13]: 26.8%
viability, T/C [14]: 31.9%
viability, T/C [3]: 21.6%
viability, T/C [4]: 20.4%
viability, T/C [15]: 23.4%
viability, T/C [16]: 27.4%
viability, T/C [17]: 26.1%
viability, T/C [18]: 27%
viability, T/C [5]: 23.2%
viability, T/C [6]: 21.1%
viability, T/C [19]: 22.7%
viability, T/C [20]: 27.8%
viability, T/C [21]: 27.7%
viability, T/C [22]: 28.3%
viability, T/C [7]: 26.6%
viability, T/C [8]: 26.3%
viability, T/C [23]: 27.6%
viability, T/C [24]: 28.8%
viability, T/C [25]: 23.9%
viability, T/C [26]: 23.4%
viability, T/C [9]: 17.9%
viability, T/C [10]: 29.2%
viability, T/C [27]: 13.2%
viability, T/C [28]: 0.34%
viability, T/C [29]: 0.12%
viability, T/C [30]: 0.93%

O=C(c1cc(Cc2n[nH]c(=O)c3ccccc23)ccc1F)N1CCN(C(=O)C2CC2)CC1 + C=CC(=O)N1CCN(c2nc(OCC3CCCN3C)nc3c2CCN(c2cccc4cccc(C)c24)C3)CC1CC#N
IC50 (second compound 0.0316 µM): < 31.6 nM
IC50 (second compound 0.1 µM): < 31.6 nM
IC50 (second compound 0.316 µM): < 31.6 nM
IC50 (second compound 1 µM): < 31.6 nM
IC50 (second compound 3.16 µM): < 31.6 nM
viability, T/C [1]: 33.1%
viability, T/C [2]: 28.8%
viability, T/C [11]: 89.6%
viability, T/C [12]: 26%
viability, T/C [13]: 30%
viability, T/C [14]: 30.3%
viability, T/C [3]: 21.3%
viability, T/C [4]: 22.5%
viability, T/C [15]: 23.6%
viability, T/C [16]: 24.1%
viability, T/C [17]: 27.9%
viability, T/C [18]: 34.4%
viability, T/C [5]: 25.6%
viability, T/C [6]: 26%
viability, T/C [19]: 24.1%
viability, T/C [20]: 24.4%
viability, T/C [21]: 23.6%
viability, T/C [22]: 29.6%
viability, T/C [7]: 27.9%
viability, T/C [8]: 28.3%
viability, T/C [23]: 26%
viability, T/C [24]: 25.6%
viability, T/C [25]: 25.8%
viability, T/C [26]: 30.9%
viability, T/C [9]: 30.1%
viability, T/C [10]: 29.2%
viability, T/C [27]: 33.1%
viability, T/C [28]: 30.4%
viability, T/C [29]: 35.4%
viability, T/C [30]: 24.3%
